Where a name gives a salt, the structure may show the parent alone.
Tested on: Acinetobacter baumannii ATCC 17961
Experiment: Antimicrobial susceptibility testing: 90% growth inhibitory concentration (IC90) determination
Format: cell-based
Conditions: ATCC17961, Acinetobacter baumannii ATCC 17961, Iso-Sensitest broth, read-out: ATCC 17961 IC90
In short: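 Broth microdilution in Iso-Sensitest medium, twofold series (e.g. 50 to 0.097 μM final), ~5×10^5 CFU/ml inoculum, 35±2 °C. OD600 read every 20 min over 16 h. IC90 derived from growth inhibition during logarithmic phase.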

Row | IC90 [nM] | SMILES
1 | 466 | Cn1c(-c2cn(CCF)nc2C(F)(F)F)cnc1C(=O)Nc1ccc(C(=O)N2CCN(C(=O)C3CCNCC3)CC2)c(Cl)c1 [Example 11, N-(3-chloro-4-(4-(piperidine-4-carbonyl)piperazine-1-carbonyl)phenyl)-5-(1-(2-fluoroethyl)-3-(trifluoromethyl)-1H-pyrazol-4-yl)-1-methyl-1H-imidazole-2-carboxamide hydrochloride]
2 | 443 | Cn1c(-c2cn(C3CC3(F)F)nc2C(F)(F)F)cnc1C(=O)Nc1ccc(C(=O)NC2(C)CCNCC2)c(Cl)c1 (stereo not shown) [Example 344, N-(3-chloro-4-((4-methylpiperidin-4-yl)carbamoyl)phenyl)-5-(1-(2,2-difluorocyclopropyl)-3-(trifluoromethyl)-1H-pyrazol-4-yl)-1-methyl-1H-imidazole-2-carboxamide formate]
3 | 2830 | Cc1cc(NC(=O)c2ncc(-c3c[nH]nc3C(F)(F)F)n2C)ccc1C(=O)NCCCCCCN [Example 49, N-(4-((6-aminohexyl)carbamoyl)-3-methylphenyl)-1-methyl-5-(3-(trifluoromethyl)-1H-pyrazol-4-yl)-1H-imidazole-2-carboxamide hydrochloride]
4 | 382 | Cn1c(-c2cn(C3CC3)nc2C(F)(F)F)cnc1C(=O)Nc1ccc(C(=O)N2CCN(C(=O)C3CNCCC3O)CC2)c(Cl)c1 (stereo not shown) [Example 311, N-[3-chloro-4-[4-(4-hydroxypiperidine-3-carbonyl)piperazine-1-carbonyl]phenyl]-5-[1-cyclopropyl-3-(trifluoromethyl)pyrazol-4-yl]-1-methylimidazole-2-carboxamide;hydrochloride]
5 | 267 | Cn1c(-c2cn(C3CC3)nc2C(F)(F)F)cnc1C(=O)Nc1ccc(C(=O)N2CCN(C(=O)N[C@@H]3CC[C@@H](N)C3)CC2)c(Cl)c1 [Example 232, N-((1R,3R)-3-aminocyclopentyl)-4-(2-chloro-4-(5-(1-cyclopropyl-3-(trifluoromethyl)-1H-pyrazol-4-yl)-1-methyl-1H-imidazole-2-carboxamido)benzoyl)piperazine-1-carboxamide formate]
6 | 256 | Cn1c(-c2cn(C3CC3)nc2C(F)(F)F)cnc1C(=O)Nc1ccc(C(=O)N2CCN(C(=O)C3CNC3)CC2)c(Cl)c1 [Example 224, N-(4-(4-(azetidine-3-carbonyl)piperazine-1-carbonyl)-3-chlorophenyl)-5-(1-cyclopropyl-3-(trifluoromethyl)-1H-pyrazol-4-yl)-1-methyl-1H-imidazole-2-carboxamide hydrochloride]
7 | 525 | Cn1c(-c2c[nH]nc2C(F)(F)F)cnc1C(=O)Nc1ccc(C(=O)N2CCN(C(=O)C3CCNCC3)CC2)c(Cl)c1 [Example 1, N-(3-chloro-4-(4-(piperidine-4-carbonyl)piperazine-1-carbonyl)phenyl)-1-methyl-5-(3-(trifluoromethyl)-1H-pyrazol-4-yl)-1H-imidazole-2-carboxamide hydrochloride]
8 | 323 | Cn1c(-c2cn(C3CC3)nc2C(F)(F)F)cnc1C(=O)Nc1ccc(C(=O)NCCCCCCNC(=O)N[C@H]2C[C@@H](N)C2)c(Cl)c1 [Example 262, N-[4-[6-[(3-aminocyclobutyl)carbamoyl-amino]hexylcarbamoyl]-3-chlorophenyl]-5-[1-cyclopropyl-3-(trifluoromethyl)pyrazol-4-yl]-1-methylimidazole-2-carboxamide;formic acid]
9 | 333 | Cn1c(-c2cn(C3CC3)nc2C(F)(F)F)cnc1C(=O)Nc1ccc(C(=O)N2CCN(C(=O)C(O)CN)CC2)c(Cl)c1 (stereo not shown) [Example 270, N-[4-[4-(3-amino-2-hydroxypropanoyl)piperazine-1-carbonyl]-3-chlorophenyl]-5-[1-cyclopropyl-3-(trifluoromethyl)pyrazol-4-yl]-1-methylimidazole-2-carboxamide;hydrochloride]
10 | 557 | C#CCn1cc(-c2cnc(C(=O)Nc3ccc(C(=O)N[C@H]4C[C@@H](N)C4)c(Cl)c3)n2C)c(C(F)(F)F)n1 [Example 93, N-[4-[(3-aminocyclobutyl)carbamoyl]-3-chlorophenyl]-1-methyl-5-[1-prop-2-ynyl-3-(trifluoromethyl)pyrazol-4-yl]imidazole-2-carboxamide;hydrochloride]
11 | 364 | Cn1c(-c2cn(CC3CCC3)nc2C(F)(F)F)cnc1C(=O)Nc1ccc(C(=O)N2CCN(C(=O)[C@H]3C[C@@H](N)C3)CC2)c(Cl)c1 [Example 295, rac-N-(4-(4-((1s,3s)-3-aminocyclobutane-1-carbonyl)piperazine-1-carbonyl)-3-chlorophenyl)-5-(1-(cyclobutylmethyl)-3-(trifluoromethyl)-1H-pyrazol-4-yl)-1-methyl-1H-imidazole-2-carboxamide hydrochloride]
12 | 411 | CCn1cc(-c2cnc(C(=O)Nc3ccc(C(=O)N4CCN(C(=O)N[C@H]5C[C@@H](N)C5)CC4)c(Br)c3)n2C)c(C(F)(F)F)n1 [Example 325, rac-N-((is,3s)-3-aminocyclobutyl)-4-(2-bromo-4-(5-(1-ethyl-3-(trifluoromethyl)-1H-pyrazol-4-yl)-1-methyl-1H-imidazole-2-carboxamido)benzoyl)piperazine-1-carboxamidee formate]
13 | 172 | CCC#CCn1cc(-c2cnc(C(=O)Nc3ccc(C(=O)N4CCN(C(=O)C5CCNCC5)CC4)c(Cl)c3)n2C)c(C(F)(F)F)n1 [Example 19, N-(3-chloro-4-(4-(piperidine-4-carbonyl)piperazine-1-carbonyl)phenyl)-1-methyl-5-(1-(pent-2-yn-1-yl)-3-(trifluoromethyl)-1H-pyrazol-4-yl)-1H-imidazole-2-carboxamide hydrochloride]
14 | 363 | CN(C(=O)c1ccc(NC(=O)c2ncc(-c3cn(C4CC4(F)F)nc3C(F)(F)F)n2C)cc1Cl)C1CCN(C(=O)N[C@H]2C[C@@H](N)C2)CC1 (mixture of isomers) [Example 294, rac-N-((1s,3s)-3-aminocyclobutyl)-4-(2-chloro-4-(5-(1-(2,2-difluorocyclopropyl)-3-(trifluoromethyl)-1H-pyrazol-4-yl)-1-methyl-1H-imidazole-2-carboxamido)-N-methylbenzamido)piperidine-1-carboxamide formate]
15 | 375 | Cn1c(-c2cn(CC=C(F)F)nc2C(F)(F)F)cnc1C(=O)Nc1ccc(C(=O)N[C@H]2C[C@@H](N)C2)c(Cl)c1 [Example 307, rac-N-(4-(((1s,3s)-3-aminocyclobutyl)carbamoyl)-3-chlorophenyl)-5-(1-(3,3-difluoroallyl)-3-(trifluoromethyl)-1H-pyrazol-4-yl)-1-methyl-1H-imidazole-2-carboxamide 2,2,2-trifluoroacetate]
16 | 480 | Cn1c(-c2cn(C3CC3)nc2C(F)(F)F)cnc1C(=O)Nc1ccc(C(=O)N2CCN(C(=O)N3CCC(N)CC3)CC2)c(Cl)c1 [Example 362, N-(4-(4-(4-aminopiperidine-1-carbonyl)piperazine-1-carbonyl)-3-chlorophenyl)-5-(1-cyclopropyl-3-(trifluoromethyl)-1H-pyrazol-4-yl)-1-methyl-1H-imidazole-2-carboxamide formate]
17 | 860 | CCc1cc(NC(=O)c2ncc(-c3cn(CC#N)nc3C(F)(F)F)n2C)ccc1C(=O)N1CCN(C(=O)N2CC3(CC(N)C3)C2)CC1 [Example 134, N-[4-[4-(6-amino-2-azaspiro[3.3]heptane-2-carbonyl)piperazine-1-carbonyl]-3-ethylphenyl]-5-[1-(cyanomethyl)-3-(trifluoromethyl)pyrazol-4-yl]-1-methylimidazole-2-carboxamide;formic acid]
18 | 333 | Cn1c(-c2cn(CC#N)nc2C(F)(F)F)cnc1C(=O)Nc1ccc(C(=O)N[C@H]2C[C@@H](NC(=O)[C@H]3C[C@H](N)C3)C2)c(Cl)c1 [Example 269, N-[4-[[3-[(3-aminocyclobutanecarbonyl)ami-no]cyclobutyl]carbamoyl]-3-chloro-phenyl]-5-[1-(cyanomethyl)-3-(trifluoromethyl)pyrazol-4-yl]-1-methyl-imidazole-2-carboxamide; formic acid]
19 | 558 | CN1CCC(C(=O)N2CCN(C(=O)c3ccc(NC(=O)c4ncc(-c5cn(CC#N)nc5C(F)(F)F)n4C)cc3Cl)CC2)CC1 [Example 15, N-(3-chloro-4-(4-(1-methylpiperidine-4-carbonyl)piperazine-1-carbonyl)phenyl)-5-(1-(cyanomethyl)-3-(trifluoromethyl)-1H-pyrazol-4-yl)-1-methyl-1H-imidazole-2-carboxamide]
20 | 4660 | Cn1c(-c2cn(Cc3cccnc3)nc2C(F)(F)F)cnc1C(=O)Nc1ccc(C(=O)N2CCN(C(=O)[C@H]3CC[C@@H](N)C3)CC2)c(Cl)c1 [Example 64, N-(4-(4-((1S,3R)-3-aminocyclopentane-1-carbonyl)piperazine-1-carbonyl)-3-chlorophenyl)-1-methyl-5-(1-(pyridin-3-ylmethyl)-3-(trifluoromethyl)-1H-pyrazol-4-yl)-1H-imidazole-2-carboxamide trihydrochloride]
21 | 330 | Cn1c(-c2cn(CC#N)nc2C(F)(F)F)cnc1C(=O)Nc1ccc(C(=O)N[C@H]2[C@@H]3CN(C(=O)N[C@@H]4CNC[C@H]4O)C[C@@H]32)c(Cl)c1 [Example 175, (1R,5S,6s)-6-(2-chloro-4-(5-(1-(cyanomethyl)-3-(trifluoromethyl)-1H-pyrazol-4-yl)-1-methyl-1H-imidazole-2-carboxamido)benzamido)-N-(trans-4-hydroxypyrrolidin-3-yl)-3-azabicyclo[3.1.0]hexane-3-carboxamide Formate]
22 | 1040 | CCc1cc(NC(=O)c2ncc(-c3cn(CC#N)nc3C(F)(F)F)n2C)ccc1C(=O)N1CCN(C(=O)C2CCNCC2)CC1 [Example 128, 5-[1-(cyanomethyl)-3-(trifluoromethyl)pyrazol-4-yl]-N-[3-ethyl-4-[4-(piperidine-4-carbonyl)piperazine-1-carbonyl]phenyl]-1-methylimidazole-2-carboxamide;formic acid]
